Results reported in patent US10363239B2, “Method for inhibiting growth of cancer cells” (Pain Therapeutics, Inc., priority 2013, dated 2019).

Key:
[1] = tested on: glioblastoma cells; test: Glucose deprivation-induced apoptosis markers (cleaved PARP-1, caspase-3) by Western blotting; format: cell-based, human; conditions: 1 nM; Day 3 and 4
Protocol: . The resultant cell lysates were size-fractionated on SDS-PAGE and Western blotting with antibodies specific for Cleaved […] (Asp214) and caspase-3 (Asp175). The protein bands were quantified by densitometric scanning. […] . Data are mean±S.E.M. of ratios (FIG. 3B) and % inhibition (FIG. 3C). […] N=5. *p<0.01 compared to Day 0. #p<0.01 compared to vehicle (open bars).
. The cells were washed with PBS, incubated in 0.1% fetal bovine serum (FBS) for 16 hours and incubated in glucose-free 0.1% FBS-containing medium for up to 4 days in the presence of vehicle or 1 nM Compound C0105. The cells in the entire well were collected by centrifugation. […] The protein concentrations were measured by the Bradford method.
The cells were homogenized and the obtained homogenates were centrifuged to remove nucleus and mitochondria. […] The level of apoptotic cell death was determined using Western blotting in 50 μg solubilized cell lysates with antibodies against cleaved PARP-1 (Asp^214) and caspase-3 (Asp^175), both at 1:1000 dilution. […] Bands at the relevant molecular masses of Ki67 and PCNA were quantified by densitometric scan. Membranes were stripped, washed 5× in 0.1% PBST (2 minutes each wash) and the actin content analyzed by immunoblotting using monoclonal anti-actin to illustrate even loading.

[2] = tested on: FLNA-bound K-ras and ras-GAP in lung fibroblasts; test: FLNA-bound K-ras and ras-GAP (immunoprecipitation, Western blotting); format: cell-based, human
Protocol: Thus, melanoma, two different pancreatic cancerous cell lines (MiaPaCa2 and BxPc3) and a glioblastoma cell line (U87) were treated with zero (vehicle), 0.1, 0.5, 1 and 5 nM Compound C0105 as previously discussed, and FLNA-bound K-ras and ras-GAP were immunoprecipitated, separated by Western blotting and the blot densities determined as discussed previously.
To study the effect of Compound C0105 on pS^2152FLNA levels, FLNA linkages to key regulators including protein phosphatases as well as activated Akt (pS^473-, pT^308-Akt), mTOR (pS^2442mTOR) and ERK (pY/pT-ERK) levels, the cancer and normal cells were cultured to approximately 90% confluency and treated with vehicle or varying concentrations of Compound C0105. […]
The cell lysates were diluted 5-fold with immunoprecipitation buffer and immunoprecipitated with anti-FLNA, -Akt, -mTOR and -ERK2 as described previously [Talbot et al., J Clin Inv 122(4):1-23 (2012); Wang et al., J Neurosci 32(29):9773-9784 (2012)]. The levels of FLNA linkages, activated phosphorylated Akt (pS^473 and pT^308), phosphorylated mTOR (pS^2448) and phosphorylated ERK2 (pY/pT) were determined in anti-FLNA, -Akt, -mTOR and -ERK2 immunoprecipitates by Western blotting with appropriate antibodies directed against PTEN, PP2A, K-RAS, ras-GAP (FLNA linkages), pS^473Akt, pT^308Akt, pS^2448mTOR and pY/pT ERK2 (activation of Akt, mTOR and ERK2). […]

[3] = tested on: pS2152FLNA, FLNA-associated PTEN and PP2A in glioblastoma cells; test: pS2152FLNA and FLNA-associated PTEN and PP2A in anti-FLNA immunoprecipitate (Western blotting); format: cell-based, human; conditions: 0.1-5 nM; 4 days
Protocol: The effect of Compound C0105 on the levels of pS^2152FLNA and FLNA-associated phosphatases, PTEN and PP2A subclasses was determined in glioblastoma cells. Cells were treated with vehicle and 0.1-5 nM Compound C0105 for 4 days. Cells were washed and solubilized, and the resultant cell lysate was immunoprecipitated with anti-FLNA. The levels of pS^2152FLNA and FLNA-associated phosphatases, PTEN and PP2A subclasses in the anti-FLNA immunoprecipitate were determined by Western blotting. The density of protein bands was quantified by densitometric scan. […] N=4. **p<0.05, *p<0.01 compared to vehicle (open bars). […]
The cell lysates were diluted 5-fold with immunoprecipitation buffer and immunoprecipitated with anti-FLNA, -Akt, -mTOR and -ERK2 as described previously [Talbot et al., J Clin Inv 122(4):1-23 (2012); Wang et al., J Neurosci 32(29):9773-9784 (2012)]. The levels of FLNA linkages, activated phosphorylated Akt (pS^473 and pT^308), phosphorylated mTOR (pS^2448) and phosphorylated ERK2 (pY/pT) were determined in anti-FLNA, -Akt, -mTOR and -ERK2 immunoprecipitates by Western blotting with appropriate antibodies directed against PTEN, PP2A, K-RAS, ras-GAP (FLNA linkages), pS^473Akt, pT^308Akt, pS^2448mTOR and pY/pT ERK2 (activation of Akt, mTOR and ERK2).

[4] = target: T1, FLNA from HPECs (Homo sapiens, UniProt P21333); test: Isoelectric focusing of purified FLNA (FLNA conformation); format: cell-based; conditions: 1 nM; 4 days
T1 construct: FLNA was purified separately from MiaPaCa2 cells and from HPECs; endogenous in cells; host or cells: primary human pancreatic epithelial cells (HPEC)
T1 sequence (P21333 whole entry): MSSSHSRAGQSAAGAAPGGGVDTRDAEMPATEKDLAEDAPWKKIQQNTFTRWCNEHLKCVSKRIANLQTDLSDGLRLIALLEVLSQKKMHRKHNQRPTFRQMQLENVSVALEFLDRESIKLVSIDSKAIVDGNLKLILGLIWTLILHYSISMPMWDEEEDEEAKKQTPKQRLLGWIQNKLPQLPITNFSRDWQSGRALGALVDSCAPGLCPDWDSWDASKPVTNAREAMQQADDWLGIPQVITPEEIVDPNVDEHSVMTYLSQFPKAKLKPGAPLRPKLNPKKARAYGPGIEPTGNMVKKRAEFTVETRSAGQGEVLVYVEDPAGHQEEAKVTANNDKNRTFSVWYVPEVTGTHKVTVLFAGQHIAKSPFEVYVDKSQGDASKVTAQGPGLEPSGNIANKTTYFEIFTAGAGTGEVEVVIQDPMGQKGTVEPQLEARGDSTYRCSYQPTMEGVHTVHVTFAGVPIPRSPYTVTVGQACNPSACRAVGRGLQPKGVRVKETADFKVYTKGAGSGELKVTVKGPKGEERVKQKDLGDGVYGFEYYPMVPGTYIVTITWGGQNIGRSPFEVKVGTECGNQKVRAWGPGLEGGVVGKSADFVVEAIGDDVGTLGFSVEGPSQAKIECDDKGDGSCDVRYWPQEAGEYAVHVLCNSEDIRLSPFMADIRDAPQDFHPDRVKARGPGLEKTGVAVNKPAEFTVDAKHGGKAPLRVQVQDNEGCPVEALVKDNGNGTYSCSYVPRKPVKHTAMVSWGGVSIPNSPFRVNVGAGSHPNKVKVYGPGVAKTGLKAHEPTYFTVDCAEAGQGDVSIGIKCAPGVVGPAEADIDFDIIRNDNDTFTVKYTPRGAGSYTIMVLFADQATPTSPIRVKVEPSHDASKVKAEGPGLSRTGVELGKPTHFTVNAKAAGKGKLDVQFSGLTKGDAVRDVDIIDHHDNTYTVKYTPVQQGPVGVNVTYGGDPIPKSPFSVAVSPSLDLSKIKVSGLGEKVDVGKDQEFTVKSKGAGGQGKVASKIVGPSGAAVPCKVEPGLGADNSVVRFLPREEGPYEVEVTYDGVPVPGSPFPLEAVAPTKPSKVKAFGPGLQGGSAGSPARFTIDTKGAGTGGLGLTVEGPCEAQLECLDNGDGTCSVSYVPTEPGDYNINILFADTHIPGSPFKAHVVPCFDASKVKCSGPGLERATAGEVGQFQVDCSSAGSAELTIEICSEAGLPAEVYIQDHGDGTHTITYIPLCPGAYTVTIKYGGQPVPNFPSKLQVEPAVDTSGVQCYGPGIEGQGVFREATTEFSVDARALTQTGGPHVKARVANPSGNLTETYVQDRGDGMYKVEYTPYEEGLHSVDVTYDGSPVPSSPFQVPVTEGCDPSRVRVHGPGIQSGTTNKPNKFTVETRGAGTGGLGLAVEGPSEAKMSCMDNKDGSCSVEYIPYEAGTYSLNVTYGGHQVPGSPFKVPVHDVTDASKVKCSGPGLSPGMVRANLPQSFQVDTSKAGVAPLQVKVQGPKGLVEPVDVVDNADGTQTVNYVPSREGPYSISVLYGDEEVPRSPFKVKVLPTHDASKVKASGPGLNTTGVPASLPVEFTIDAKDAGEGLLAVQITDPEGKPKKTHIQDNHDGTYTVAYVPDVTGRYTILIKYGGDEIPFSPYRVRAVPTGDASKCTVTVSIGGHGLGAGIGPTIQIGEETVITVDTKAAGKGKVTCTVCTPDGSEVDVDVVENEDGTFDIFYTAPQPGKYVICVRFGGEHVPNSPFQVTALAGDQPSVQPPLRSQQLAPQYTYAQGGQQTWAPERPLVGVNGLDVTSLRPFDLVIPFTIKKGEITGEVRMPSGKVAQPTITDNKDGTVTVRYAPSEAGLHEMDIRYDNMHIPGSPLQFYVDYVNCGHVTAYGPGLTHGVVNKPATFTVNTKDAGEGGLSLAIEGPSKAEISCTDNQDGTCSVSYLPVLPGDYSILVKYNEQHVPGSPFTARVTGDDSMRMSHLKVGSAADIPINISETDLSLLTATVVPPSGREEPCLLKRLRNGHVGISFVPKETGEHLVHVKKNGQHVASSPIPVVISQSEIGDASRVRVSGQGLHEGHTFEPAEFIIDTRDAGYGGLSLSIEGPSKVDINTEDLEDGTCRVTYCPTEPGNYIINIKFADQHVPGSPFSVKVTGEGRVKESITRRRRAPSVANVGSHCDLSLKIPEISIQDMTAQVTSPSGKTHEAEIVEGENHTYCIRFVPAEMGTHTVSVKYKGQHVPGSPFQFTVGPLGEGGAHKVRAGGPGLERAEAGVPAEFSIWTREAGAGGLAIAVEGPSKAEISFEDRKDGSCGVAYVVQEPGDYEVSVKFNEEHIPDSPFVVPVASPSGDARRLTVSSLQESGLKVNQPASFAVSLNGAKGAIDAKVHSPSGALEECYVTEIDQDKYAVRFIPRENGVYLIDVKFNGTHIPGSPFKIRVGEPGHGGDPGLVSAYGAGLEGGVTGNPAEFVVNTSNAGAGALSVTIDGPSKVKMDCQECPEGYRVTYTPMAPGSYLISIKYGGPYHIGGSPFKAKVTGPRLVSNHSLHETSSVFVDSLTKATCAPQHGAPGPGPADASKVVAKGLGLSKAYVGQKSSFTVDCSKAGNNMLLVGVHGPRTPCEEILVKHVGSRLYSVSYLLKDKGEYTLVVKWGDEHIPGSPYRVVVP
Protocol: (§1) FIGS. 33A and 33B show isoelectric focusing result data (FIG. 33A) for FLNA separately isolated from HPEC and MiaPaCa2 cells after four days of incubation (contact) of those cells with medium alone or medium plus 1 nM Compound C0105. […] N=4, *p<0.01.
(§2) To determine whether the conformation of FLNA is different in cancer and primary normal cells and whether Compound C0105 affects FLNA conformation, FLNA was purified from cancer and primary cells after incubation with vehicle or 1 nM Compound C0105 for 4 days. Cells were washed with PBS, scraped, sonicated for 10 seconds and solubilized using 0.5% digitonin/0.2% sodium cholate/0.5% NP-40 at 4° C. with end-over-end rotation for 1 hour. Following centrifugation to remove insoluble debris, the obtained lysate was treated with 1% SDS for 1 minute to dissociate the […] proteins, diluted 10-fold with immunoprecipitation buffer, and immunopurified with immobilized anti-FLNA. The resultant FLNA was eluted using 200 μl antigen-elution buffer (Thermo), neutralized immediately with 100 mM Tris HCl (pH9.0), diluted to 500 μl with 50 mM Tris HCl, pH7.5, and passed through a 100 kD cut-off filter.
(§3) The purified FLNA was suspended in the 100 μl isoelectric focusing sample buffer. […]

[5] = target: T2, FLNA from MiaPaCa2 cells (Homo sapiens, UniProt P21333); test: as above; format: cell-based; conditions: 1 nM; 4 days
T2 construct: FLNA was purified separately from MiaPaCa2 cells and from HPECs; endogenous in cells; host or cells: MiaPaCa2 (MIA PaCa-2, ATCC CRL-1420)
T2 sequence (P21333 whole entry): as above
Protocol: as §1, §2, §3

CN1CCC2(CC1)NCC(=O)N2Cc1ccccc1 [Compound C0105]
Glucose deprivation-induced cell death by cleaved PARP-1 and caspase-3 [1]: attenuates glucose deprivation-induced cell death
FLNA-associated K-ras and ras-GAP [2]: had no effect on fibroblasts
FLNA-associated PTEN and PP2A levels [3]: increases FLNA-associated PTEN and PP2A levels
pS2152FLNA level [3]: reduces pS^2152FLNA
pI of FLNA [4]: no effect on the pI
Fraction of FLNA restored to the conformation (pI) present in HPECs [5]: about 75%
